Source: ChEMBL document CHEMBL5331046, “Disulfiram and dithiocarbamate analogues demonstrate promising antischistosomal effects” (Eur J Med Chem, 2022)
The source made the active and inactive calls. No cut-off for these calls is given here.

Key:
[1] = system: Schistosoma mansoni; experiment: Antischistosomal activity against Schistosoma mansoni couples assessed as decrease in parasite motility at 100 uM measured upto 72 hrs by bright field microscopy; assay type: functional
[2] = system: Schistosoma mansoni; experiment: Antischistosomal activity against Schistosoma mansoni couples assessed as reduction in pairing stability at 100 uM measured upto 72 hrs by bright field microscopy; assay type: functional; parameters: scale not given: the % may be the effect or the level left
[3] = system: Schistosoma mansoni; experiment: Antischistosomal activity against Schistosoma mansoni couples assessed as inhibition of eggs production at 100 uM measured upto 72 hrs by bright field microscopy; assay type: functional; parameters: scale not given: the % may be the effect or the level left
[4] = system: Schistosoma mansoni; experiment: Antischistosomal activity against Schistosoma mansoni couples at 100 uM measured upto 72 hrs by bright field microscopy; assay type: functional, organism-based
[5] = system: HepG2; experiment: Cytotoxicity against human HepG2 cells assessed as reduction in cell viability upto 100 uM by WST-1 assay; assay type: toxicity, cell-based; conditions: hepg2, 100 µM
[6] = system: LS174T; experiment: Cytotoxicity against human LS174T cells assessed as reduction in cell vaibility upto 100 uM by WST-1 assay; assay type: toxicity, cell-based
[7] = system: Schistosoma mansoni; experiment: Antischistosomal activity against Schistosoma mansoni couples at 25 uM measured upto 72 hrs by bright field microscopy; assay type: functional, organism-based
[8] = system: Schistosoma mansoni; experiment: Antischistosomal activity against Schistosoma mansoni couples assessed as detachment of worms from culture dish at 100 uM measured upto 72 hrs by bright field microscopy; assay type: functional, organism-based
[9] = system: Schistosoma mansoni; experiment: Antischistosomal activity against Schistosoma mansoni couples assessed as decrease in parasite motility at 50 uM measured upto 72 hrs by bright field microscopy; assay type: functional
[10] = system: Schistosoma mansoni; experiment: Antischistosomal activity against Schistosoma mansoni couples at >=50 uM measured upto 72 hrs by bright field microscopy; assay type: functional, organism-based
[11] = system: Schistosoma mansoni; experiment: Antischistosomal activity against Schistosoma mansoni couples assessed as decrease in pairing stability at 15 uM measured upto 72 hrs by bright field microscopy; assay type: functional; parameters: scale not given: the % may be the effect or the level left
[12] = system: Schistosoma mansoni; experiment: Antischistosomal activity against Schistosoma mansoni couples assessed as inhibition of eggs production at 15 uM measured upto 72 hrs by bright field microscopy; assay type: functional; parameters: scale not given: the % may be the effect or the level left
[13] = system: Schistosoma mansoni; experiment: Antischistosomal activity against Schistosoma mansoni couples assessed as induction of phenotypes at 10 uM measured upto 72 hrs by bright field microscopy; assay type: functional, organism-based
[14] = system: Schistosoma mansoni; experiment: Antischistosomal activity against Schistosoma mansoni couples assessed as decrease in parasite vitality at 15 uM measured upto 72 hrs by bright field microscopy; assay type: functional; parameters: scale not given: the % may be the effect or the level left
[15] = system: Schistosoma mansoni; experiment: Antischistosomal activity against Schistosoma mansoni couples assessed as decrease in parasite motility at 10 uM measured upto 72 hrs by bright field microscopy; assay type: functional, organism-based
[16] = system: Schistosoma mansoni; experiment: Antischistosomal activity against Schistosoma mansoni couples assessed as decrease in parasite motility at 15 uM measured upto 72 hrs by bright field microscopy; assay type: functional; parameters: scale not given: the % may be the effect or the level left
[17] = system: Schistosoma mansoni; experiment: Antischistosomal activity against Schistosoma mansoni couples assessed as tegument damage at 50 uM measured upto 72 hrs by bright field microscopy; assay type: functional, organism-based
[18] = system: Schistosoma mansoni; experiment: Antischistosomal activity against Schistosoma mansoni couples assessed as intestinal dilations and tegument damage at 50 uM measured upto 72 hrs by bright field microscopy; assay type: functional, organism-based
[19] = system: Schistosoma mansoni; experiment: Antischistosomal activity against Schistosoma mansoni couples assessed as gut dilations at 50 uM measured upto 72 hrs by bright field microscopy; assay type: functional, organism-based
[20] = system: Schistosoma mansoni; experiment: Antischistosomal activity against Schistosoma mansoni couples assessed as decrease in parasite motility at 25 uM measured upto 72 hrs by bright field microscopy; assay type: functional
[21] = system: Schistosoma mansoni; experiment: Antischistosomal activity against Schistosoma mansoni couples assessed as inhibition of eggs production at 50 uM measured upto 72 hrs by bright field microscopy; assay type: functional, organism-based
[22] = system: Schistosoma mansoni; experiment: Antischistosomal activity against Schistosoma mansoni couples assessed as reduction in pairing stability at 50 uM measured upto 72 hrs by bright field microscopy; assay type: functional, organism-based
[23] = system: HepG2; experiment: Cytotoxicity against human HepG2 cells assessed as reduction in cell vaibility at 100 uM by WST-1 assay; assay type: toxicity, cell-based; conditions: hepg2, 100 µM
[24] = system: LS174T; experiment: Cytotoxicity against human LS174T cells assessed as reduction in cell viability at 100 uM by WST-1 assay; assay type: toxicity, cell-based
[25] = system: Schistosoma mansoni; experiment: Antischistosomal activity against Schistosoma mansoni couples assessed as induction of weak phenotypes at 25 uM measured upto 72 hrs by bright field microscopy; assay type: functional, organism-based
[26] = system: Schistosoma mansoni; experiment: Antischistosomal activity against Schistosoma mansoni couples assessed as pairing instability at 50 uM measured upto 72 hrs by bright field microscopy; assay type: functional
[27] = system: Schistosoma mansoni; experiment: Antischistosomal activity against Schistosoma mansoni couples assessed as tegument damage upto 100 uM measured upto 72 hrs by bright field microscopy; assay type: functional, organism-based
[28] = system: Schistosoma mansoni; experiment: Antischistosomal activity against Schistosoma mansoni couples assessed as gut dilations at 100 uM measured upto 72 hrs by bright field microscopy; assay type: functional, organism-based

Q: For `CCN(CC)C(=S)SCCc1ccccc1`, which Activity [1] is on record?
A: inactive

Q: And the Activity [2]?
A: 100%

Q: What about the Activity [3] of the same compound?
A: 100%

Q: With `S=C(SCc1ccccc1)N1CCN(c2ncccn2)CC1` as the compound, how does the Activity [4] read?
A: Active

Q: Which results are given for `CCN(CC)C(=S)SCc1ccc(C)cc1`?
A: Activity [5]: Non-Toxic; Activity [6]: Non-Toxic

Q: How did the Activity [7] turn out when `CC(=O)N1CCN(C(=S)SCc2ccc([N+](=O)[O-])cc2)CC1` was run?
A: inactive

Q: With `S=C(SCc1ccccc1)N1CCSC1` as the compound, how does the Activity [8] read?
A: Active

Q: With `CCN(CC)C(=S)SCCC1OCCCO1` as the compound, how does the Activity [9] read?
A: inactive

Q: With `CCCCCN(CCCCC)C(=S)SCc1ccccc1` as the compound, how does the Activity [4] read?
A: inactive

Q: With `Cc1ccc(CN2CCN(C(=S)SCc3ccccc3)CC2)cc1` as the compound, how does the Activity [4] read?
A: Active

Q: How did the Activity [7] turn out when `O=C(C1CC1)N1CCN(C(=S)SCc2ccc([N+](=O)[O-])cc2)CC1` was run?
A: inactive

Q: With `S=C(SCc1ccccc1)N1CCCc2ccccc21` as the compound, how does the Activity [4] read?
A: inactive

Q: Which Activity [7] does the source give for `O=C(c1ccco1)N1CCN(C(=S)SCc2ccc([N+](=O)[O-])cc2)CC1` here?
A: inactive

Q: With `CN1CCN(C(=S)SCc2ccccc2)CC1` as the compound, how does the Activity [10] read?
A: Active

Q: For `O=[N+]([O-])c1ccc(CSC(=S)N2CCN(S(=O)(=O)C3CC3)CC2)cc1`, which Activity [11] is on record?
A: 20%

Q: What about the Activity [12] of the same compound?
A: 40%

Q: And the Activity [13]?
A: Active

Q: What about the Activity [14] of the same compound?
A: 90%

Q: What about the Activity [15] of the same compound?
A: Active

Q: And the Activity [16]?
A: 50%

Q: How did the Activity [17] turn out when `CCN(CC)C(=S)SCc1ccc(C#N)cc1` was run?
A: Active

Q: And the Activity [18]?
A: Active

Q: What about the Activity [19] of the same compound?
A: Active

Q: What about the Activity [20] of the same compound?
A: Active

Q: And the Activity [21]?
A: Active

Q: What about the Activity [22] of the same compound?
A: Active

Q: With `CCN(CC)C(=S)SC` [METHYLDIETHYL CARBAMODITHIOATE] as the compound, how does the Activity [23] read?
A: Non-Toxic

Q: And the Activity [4]?
A: inactive

Q: And the Activity [24]?
A: Non-Toxic

Q: What does the source list for `CCN(CC)C(=S)SCCCc1ccccc1`?
A: Activity [1]: inactive; Activity [2]: 100%; Activity [3]: 100%

Q: With `CCN(CC)C(=S)SCCCCCc1ccccc1` as the compound, how does the Activity [2] read?
A: inactive

Q: What about the Activity [3] of the same compound?
A: Active

Q: With `Cl.N[C@@H](CO)C(=O)N1CCN(C(=S)SCc2ccc([N+](=O)[O-])cc2)CC1` as the compound, how does the Activity [20] read?
A: 30%

Q: And the Activity [25]?
A: Active

Q: `S=C(SCc1ccccc1)n1ccnc1` was tested. Which Activity [2] did it give?
A: Active

Q: And the Activity [3]?
A: Active

Q: How did the Activity [2] turn out when `CCN(CC)C(=S)SCC(N)=O` was run?
A: Active

Q: Which Activity [3] does the source give for `CCN(CC)C(=S)SCc1ccc(-c2ccccc2)cc1` here?
A: Active

Q: How did the Activity [26] turn out when `CCN(CC)C(=S)SCCC1OCCO1` was run?
A: inactive

Q: What about the Activity [1] of the same compound?
A: inactive

Q: With `CCN(CC)C(=S)SCCC1SCCCS1` as the compound, how does the Activity [5] read?
A: Non-Toxic

Q: What about the Activity [9] of the same compound?
A: Active

Q: And the Activity [26]?
A: 0%

Q: And the Activity [1]?
A: <40%

Q: And the Activity [27]?
A: Active

Q: What about the Activity [6] of the same compound?
A: Non-Toxic

Q: Which results are given for `CCS(=O)(=O)N1CCN(C(=S)SCc2ccc([N+](=O)[O-])cc2)CC1`?
A: Activity [11]: 20%; Activity [12]: 40%; Activity [13]: inactive; Activity [14]: 90%; Activity [15]: inactive; Activity [16]: 50%

Q: For `CCN(CC)C(=S)SCCc1c[nH]c2ccccc12`, which Activity [1] is on record?
A: inactive

Q: And the Activity [28]?
A: Active

Q: With `CCN(CC)C(=S)SCc1cccc2ccccc12` as the compound, how does the Activity [9] read?
A: ~30%

Q: For `CCC(CC)C(=S)SCc1ccccc1`, which Activity [4] is on record?
A: Active

Q: Which Activity [2] does the source give for `CCN(CC)C(=S)SCC(=O)OC` here?
A: Active

Q: Which results are given for `CCN(CC)C(=S)SCCCCc1ccccc1`?
A: Activity [2]: inactive; Activity [3]: Active

Q: With `CCC(CC)C(=O)SCc1ccccc1` as the compound, how does the Activity [4] read?
A: Active

Q: With `CCN(CC)C(=S)SCc1ccncc1` as the compound, how does the Activity [4] read?
A: inactive
